According to patent US6686353B1, “Diarylalkyl cyclic diamine derivatives as chemokine receptor antagonists” (Teijin Intellectual Property Center Limited, priority 1996, dated 2004):
Where two headings read alike, the source gives them in different places.

Tests used:
[1] = target: T1, human MCP-1 binding to THP-1 cells (Homo sapiens, UniProt P41597); test: Inhibition of [125I]-labeled human MCP-1 binding to THP-1 cells; settings: at 100 μM test compound; read-out: inhibitory activity (inhibition of human MCP-1 binding to THP-1 cells)
T1 construct: endogenous in cells; host or cells: THP-1 (human monocytic leukemia cell line), whole cells
T1 sequence (P41597 1-360 isoform P41597-2): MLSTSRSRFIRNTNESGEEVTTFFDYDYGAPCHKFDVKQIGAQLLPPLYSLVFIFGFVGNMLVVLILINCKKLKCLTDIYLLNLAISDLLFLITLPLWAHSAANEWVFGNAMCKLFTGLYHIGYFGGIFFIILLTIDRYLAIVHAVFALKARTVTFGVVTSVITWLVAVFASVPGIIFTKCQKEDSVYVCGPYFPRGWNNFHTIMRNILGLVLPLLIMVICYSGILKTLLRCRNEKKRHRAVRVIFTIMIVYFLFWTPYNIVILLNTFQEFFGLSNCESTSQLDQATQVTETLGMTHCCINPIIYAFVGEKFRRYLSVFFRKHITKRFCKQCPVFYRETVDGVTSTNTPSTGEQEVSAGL
Source text: Measurement of Inhibition of MCP-1 Binding to TP-1 Cells
1. Construction of Recombinant Baculovirus Carrying the Human MCP-1 Gene
Based on the previously published human MCP-1 gene sequence (for example T. Yoshimura et al., Febs Letters, 1989, 244, 487-493), two synthetic DNA primers (5′-[…]-3′ and 5′-[…]-3′) flanked by restriction enzyme sites were used to amplify a DNA fragment from cDNA derived from human endothelial cells (purchased from Kurabow Co.); the amplified fragment was cut with the restriction enzymes (PstI and XbaI), ligated into a transfer vector pVL1393 (Invitrogen Co.), and the resulting vector was co-transfected along with infectious baculovirus into Sf-9 insect cells and the supernatant was plaque assayed to yield human MCP-1 gene baculovirus recombinant.
2. Synthesis of [^125I]-labeled Human MCP-1 Expressed in Baculovirus
Using the method of K. Ishii et al. (Biochem Biophys Research Communications 1995, 206, 955-961), 5×10^6 Sf-6 insect cells was infected with 5×10^7 PFU (plaque forming units) of the above human MCP-1 recombinant baculovirus and cultured for 7 days in Ex-Cell 401 medium. The culture supernatant was affinity purified using a heparin Sepharose column (Pharmacia Co.) and then further purified using reverse phase HPLC (Vydac C18 column) to prepare purified human MCP-1. The purified human MCP-1 was protein labeled by Amersham Co. using the Bolton Hunter method to yield [^125I]-labeled baculovirus expressed human MCP-1 (specific activity 2000 Ci/mmol).
3. Measurement of Inhibition of Binding of [^125I]-labeled Baculovirus Expressed Human MCP-1 to THP-1 Cells
(§1) Human monocytic leukemia cell line THP-1 was suspended in assay buffer (RPMI-1640 (Gibco-BRL Co.) containing 0.1% BSA and 25 mM HEPES adjusted to pH 7.4) to give a cell suspension of a concentration of 1×10^7 cells/mL. The test compound was diluted in the assay buffer and used as the test compound solution. [^125I]-labeled human MCP-1 described above was diluted in assay buffer to 1 mCi/mL and used as the labeled ligand solution. In a 96 well filter plate (Millipore Co.), 25 μL of test compound solution, 25 μL of labeled ligand solution and 50 μL of cell suspension were aliquoted into each well in this order, stirred (total reaction volume 100 μL), and incubated for one hour at 18° C.
(§2) After the reaction, the reaction solution was filtered, and the filter was washed twice with 200 μL of cold PBS (200 μL of cold PBS was added and then filtered). The filter was removed and placed in an RIA tube (Iuchi Seieido Co.,), and the radioactivity retained by the cells on the filter were measured using a gamma counter (Aloka Co.).
To calculate the ability of test compound to inhibit binding of human MCP-1 to THP-1 cells, non-specific binding determined by adding 100 ng of unlabeled human MCP-1 in place of the test compound was subtracted, while the counts with no test compound added was taken as 100%.
Inhibition (%)=(1−(A−B)/(C−B))×100
(A, counts with test compound added; B, counts with 100 ng of unlabeled human […] added; C, counts with [^125I]-labeled human MCP-1 added).

[2] = target: T2, human MIP-1α binding to THP-1 cells (Homo sapiens, UniProt P32246); test: Inhibition of MIP-1α binding to THP-1 cells; settings: at 100 μM test compound; read-out: inhibitory activity (inhibition of human MIP-1α binding to THP-1 cells)
T2 construct: endogenous in cells; host or cells: THP-1 (human monocytic leukemia cell line), whole cells
T2 sequence (P32246 1-355): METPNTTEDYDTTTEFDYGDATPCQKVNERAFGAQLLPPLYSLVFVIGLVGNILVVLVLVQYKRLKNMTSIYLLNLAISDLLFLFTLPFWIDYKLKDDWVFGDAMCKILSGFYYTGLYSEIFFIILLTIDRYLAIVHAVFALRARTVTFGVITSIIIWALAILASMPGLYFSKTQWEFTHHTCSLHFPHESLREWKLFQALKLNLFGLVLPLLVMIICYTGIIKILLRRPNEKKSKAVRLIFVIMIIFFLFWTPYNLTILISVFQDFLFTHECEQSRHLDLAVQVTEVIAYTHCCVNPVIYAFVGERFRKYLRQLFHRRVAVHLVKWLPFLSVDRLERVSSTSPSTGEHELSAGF
Protocol: Measurement of Inhibition of MIP-1α Binding to THP-1 Cells by Test Compounds
as §1, with “Iodinated” for “[^125I]-labeled”, “MIP-1α (DuPont NEN Co.)” for “MCP-1 described above”, “250 nCi/mL” for “1 mCi/mL”, “the” for “the labeled”, “solution.” for “solution,”
as §2, with “Co.)” for “Co.,),”
To calculate the ability of test compounds to inhibit binding of human MIP-1α to THP-1 cells, non-specific binding determined by adding 100 ng of unlabeled human MIP-1α (Peprotech Co.) in place of the test compound was subtracted, while the counts with no test compound added was taken as 100%. […]

MCP-1 receptor = target: T3, MCP-1 receptor (Homo sapiens, UniProt P41597); test: Inhibition of binding of [125I]-labeled human MCP-1 to cells expressing the MCP-1 receptor (293-EBNA transfectant); settings: dose dependent inhibition; 293-EBNA cells expressing MCP-1 receptor; read-out: 50% inhibitory concentration (IC50), MCP-1 binding to MCP-1 receptor expressing cells
T3 construct: expressed in transfected cells
T3 sequence (P41597 1-360 isoform P41597-2): T1 sequence (P41597 1-360 isoform P41597-2)
Source text: Measurement of Inhibition of Binding of [^125I]-labeled Human MCP-1 to Cells Expressing the MCP-1 Receptor
1. Derivation of Cells Expressing the MCP-1 Receptor
cDNA fragment containing the MCP-1 receptor reported by S. Yamagami et al., Biochemical Biophysical Research Communications 1994, 202, 1156-1162) was cloned into the expression plasmid pCEP4 (Invitrogen Co.) at the NotI site, and the plasmid obtained was transfected into the human kidney epithelial cell line 293-EBNA using the Lipofectamine reagent (Gibco-BRL Co.). The cells were cultured in the presence of the selective agent (Hygromycin), and a stably expressing transfectant line was obtained. The express ion of the receptor was confirmed by binding of [^125I]-labeled human MCP-1.
2. Measurement of Inhibition of Binding of [^125I]-labeled Baculovirus Expressed Human MCP-1 to the MCP-1 Receptor Expressing Cells
The MCP-1 receptor expressing cells on tissue culture dishes were scraped using a call scraper and suspended in assay buffer (D-MEM(Gibco-BRL Co.) containing 0.1% BSA and 25 mM HEPES adjust ed to pH 7.4) to give a cell suspension of a concentration of 6×10^6 cellls/mL. The test compound was diluted in the assay buffer to concentrations of […], and 100 μM. The remainder of the procedure was as described in Example 163.

THP-1 cells = test: Inhibition of cell chemotaxis caused by MCP-1 (THP-1 cells); assay type: cell-based, human; settings: MCP-1 20 ng/mL, 37° C. 2 hr, read-out: 50% inhibition concentration (IC50) of cell migration
Protocol: Measurement of Inhibition of Cell Chemotaxis
In order to determine the inhibition of call chemotaxis by the compounds of this invention, we measured call chemotaxis caused by monocyte chemotactic factor MCP-1 using the human monocytic leukemia cell line THP-1 as the chemotactic cell according to the method of Fall et al. (J. Immunol. Methods, […], 33, 239-247). 2×10^6 cells/mL of THP-1 cells (suspended in RPMI-1640 (Flow Laboratories Co.) +10% FCS) was placed in the upper chamber (200 μL) of a 96 well micro-chemotaxis chamber (Neuroprobe, registered tradename), and human recombinant MCP-1 in a same solution (Peprotech Co.) at a final concentration of 20 ng/mL was placed in the lower chamber, with a polycarbonate filter (PVP-free, Neuroprobe; registered tradename) placed between the two chambers, These were incubated at 37° C. for 2 hr in 5% CO2.
The filter was removed, and the cells which had migrated to the underside of the filter was fixed, stained using Diff Quick (Kokusai Shiyaku Co.) and then quantitated using a plate reader (Molecular Device Co.) at a wavelength of 550 nm to determine the index of cell migration as a mean of 3 wells, In addition. test compounds were placed in the upper chamber along with THP-1, and the inhibition of cell migration (inhibition IC50 (μM)) was determined. […]

inhibition at 100 µM [1] [%] | SMILES | also measured
> 20 | NC(=O)c1ccc(CN2CCCN(CCC(c3ccccc3)c3ccccc3)CC2)cc1 [Compound No. 55, 1-(3,3-Diphenylpropyl)-4-(4-carbamoylbenzyl)homopiperazine] | –
> 20 | OC(CCN1CCCN(Cc2ccc(Cl)cc2)CC1)(c1ccccc1)c1ccccc1 [Compound No. 107, 1-(3-Hydroxy-3,3-diphenylpropyl)-4-(4-chlorobenzyl)homopiperazine] | inhibition at 100 µM [2]: > 20%
> 20 | CS(=O)(=O)c1ccc(CN2CCCN(CCC(O)(c3ccc(O)cc3)c3ccc(O)cc3)CC2)cc1 [Compound No. 119, 1-[3,3-bis(4-Hydroxyphenyl)-3-hydroxypropyl]-4-[4-(methylsulfonyl)benzyl]homopiperazine] | –
> 20 | CS(=O)(=O)c1ccc(CN2CCCN(CCC(O)(c3ccco3)c3ccco3)CC2)cc1 [Compound No. 129, 1-[3,3-Di(2-furyl)-3-hydroxypropyl]-4-[4-(methylsulfonyl)benzyl]homopiperazine] | –
> 20 | Cn1cccc1C(O)(CCN1CCCN(Cc2ccc(S(C)(=O)=O)cc2)CC1)c1ccccc1 (centres unmarked) [Compound No. 136, 1-[3-Hydroxy-3-(1-methyl-2-pyrrolyl)-3-phenylpropyl]-4-[4-(methylsulfonyl)benzyl]homopiperazine] | –
> 20 | CC(=O)Nc1cccc(C(O)(CCN2CCCN(Cc3ccc(S(C)(=O)=O)cc3)CC2)c2ccccc2)c1 (centres unmarked) [Compound No. 162, 1-[3-(3-Acetylaminophenyl)-3-hydroxy-3-phenylpropyl]-4-[4-(methylsulfonyl)benzyl]homopiperazine] | –
> 20 | CC(C)(C)OC(=O)N1CCCN(CCC(O)(c2ccccc2)c2cccc(O)c2)CC1 (centres unmarked) [Compound No. 294, 1-(tert-butyloxycarbonyl)-4-[3-hydroxy-3-(3-hydroxyphenyl)-3-phenylpropyl]homopiperazine] | –
> 20 | Oc1cccc(C(O)(CCN2CCCNCC2)c2ccccc2)c1 (centres unmarked) [Compound No. 295, 1-[3-hydroxy-3-(3-hydroxyphenyl)-3-phenylpropyl]homopiperazine] | –
> 20 | CC(=O)N1CCCN(CCC(O)(c2ccccc2)c2cccc(O)c2)CC1 (centres unmarked) [Compound No. 296, 1-acetyl-4-[3-hydroxy-3-(3-hydroxyphenyl)-3-phenylpropyl]homopiperazine] | –
> 20 | CS(=O)(=O)c1ccc(CN2CCCN(CCC(c3ccccc3)c3ccccc3)CC2)cc1 [compound 36] | IC50 (MCP-1 receptor): 17 µM; IC50 (THP-1 cells; Homo sapiens): 9 µM
– | c1ccc(C(CCN2CCCN(Cc3ccncc3)CC2)c2ccccc2)cc1 [compound 240] | IC50 (THP-1 cells): 30 µM
